# Test results published in US20220062240A1, “METHODS OF TREATING CANCER USING A CLK INHIBITOR” (BioSplice Therapeutics, Inc., priority 2018, published 2022).
# Read-outs that look alike come from different tables or passages of the source.
# Key:
# MCF7 = test: CellTiter-Glo Viability Assay, breast cancer; assay type: cell-based; settings: Homo sapiens, 96 h; MCF7, breast cancer, four days; read-out: EC50
# T47D = test: CellTiter-Glo Viability Assay, breast cancer; assay type: cell-based; settings: Homo sapiens, 96 h, breast cancer, four days, read-out: EC50
# CAMA1 = test: CellTiter-Glo Viability Assay, breast cancer; assay type: cell-based; settings: Homo sapiens, CAMA-1, 96 h; CAMA1, breast cancer, four days; read-out: EC50
# MDA-MB-231-Luc = test: CellTiter-Glo Viability Assay, breast cancer; assay type: cell-based; settings: Homo sapiens, 96 h; MDA-MB-231-Luc, breast cancer, four days; read-out: EC50
# HCC1599 = test: CellTiter-Glo Viability Assay, breast cancer; assay type: cell-based; settings: Homo sapiens, 96 h; HCC1599, breast cancer, four days; read-out: EC50
# BT-549 = test: CellTiter-Glo Viability Assay, breast cancer; assay type: cell-based; settings: Homo sapiens, 96 h; BT-549, breast cancer, four days; read-out: EC50
# DU4475 = test: CellTiter-Glo Viability Assay, breast cancer; assay type: cell-based; settings: Homo sapiens, DU-4475, 96 h; DU4475, breast cancer, four days; read-out: EC50
# ZR-75-1 = test: CellTiter-Glo Viability Assay, breast cancer; assay type: cell-based; settings: Homo sapiens, 96 h; ZR-75-1, breast cancer, four days; read-out: EC50
# [1] = system: ovarian cancer (4 cell lines); test: CellTiter-Glo Viability Assay, ovarian cancer; assay type: cell-based; settings: Homo sapiens, inhibition of cancer cell proliferation
# [2] = system: pancreatic cancer (8 cell lines); test: CellTiter-Glo Viability Assay, pancreatic cancer; assay type: cell-based; settings: Homo sapiens, inhibition of cancer cell proliferation
# [3] = system: liver cancer (3 cell lines); test: CellTiter-Glo Viability Assay, liver cancer; assay type: cell-based; settings: Homo sapiens, inhibition of cancer cell proliferation
# [4] = system: colorectal cancer (6 cell lines); test: CellTiter-Glo Viability Assay, colorectal cancer; assay type: cell-based; settings: Homo sapiens, inhibition of cancer cell proliferation
# CLK2 = target: T1, CLK2 (Homo sapiens, UniProt P49760); test: CLK2 kinase activity assay (Z-lyte, Ser/Thr 6 peptide); assay type: biochemical; settings: recombinant CLK2 kinase, ATP 60 μM; read-out: EC50
# T1 construct: purchased Thermo Fisher (Life Technologies), Z'-LYTE Kinase Assay Kits
# T1 sequence (P49760 whole entry): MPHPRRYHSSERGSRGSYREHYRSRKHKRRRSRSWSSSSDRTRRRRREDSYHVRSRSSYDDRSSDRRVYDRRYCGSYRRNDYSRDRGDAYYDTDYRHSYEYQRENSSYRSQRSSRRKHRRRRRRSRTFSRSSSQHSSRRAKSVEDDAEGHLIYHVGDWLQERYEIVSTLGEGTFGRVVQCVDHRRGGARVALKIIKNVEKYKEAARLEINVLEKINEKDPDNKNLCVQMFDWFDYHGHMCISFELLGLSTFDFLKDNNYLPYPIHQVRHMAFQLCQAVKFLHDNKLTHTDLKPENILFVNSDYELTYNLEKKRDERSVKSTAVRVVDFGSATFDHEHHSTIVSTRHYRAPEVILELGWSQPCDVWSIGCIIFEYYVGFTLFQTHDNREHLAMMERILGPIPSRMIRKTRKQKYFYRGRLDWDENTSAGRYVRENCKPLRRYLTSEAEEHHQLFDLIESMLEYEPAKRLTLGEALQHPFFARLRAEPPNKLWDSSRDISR
# Experimental: All reactions were performed in duplicate.
# CLK3 = CLK3 (Homo sapiens, UniProt P49761); test: CLK3 kinase activity assay (Z-lyte, Ser/Thr 18 peptide)
# Sequence of CLK3 (P49761 whole entry): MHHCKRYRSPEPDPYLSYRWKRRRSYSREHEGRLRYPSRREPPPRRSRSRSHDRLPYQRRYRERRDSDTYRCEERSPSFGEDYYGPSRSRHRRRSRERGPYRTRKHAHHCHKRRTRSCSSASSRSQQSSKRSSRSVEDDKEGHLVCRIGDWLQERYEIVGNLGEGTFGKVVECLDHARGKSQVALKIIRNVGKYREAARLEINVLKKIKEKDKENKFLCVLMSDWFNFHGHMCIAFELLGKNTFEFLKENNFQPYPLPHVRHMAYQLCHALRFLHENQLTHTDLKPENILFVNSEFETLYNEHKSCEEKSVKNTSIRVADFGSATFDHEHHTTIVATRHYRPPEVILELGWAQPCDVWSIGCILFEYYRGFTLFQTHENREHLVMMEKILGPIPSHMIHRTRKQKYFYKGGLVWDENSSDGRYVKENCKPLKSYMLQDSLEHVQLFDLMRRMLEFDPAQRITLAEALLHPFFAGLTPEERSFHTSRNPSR
# [5] = system: haematopoietic & lymphoid tumors (13 cell lines); test: CellTiter-Glo Viability Assay, haematopoietic & lymphoid tumors; assay type: cell-based; settings: Homo sapiens, inhibition of cancer cell proliferation
# [6] = system: prostate cancer (5 cell lines); test: CellTiter-Glo Viability Assay, prostate cancer; assay type: cell-based; settings: Homo sapiens
# [7] = system: lung cancer (4 cell lines); test: CellTiter-Glo Viability Assay, lung cancer; assay type: cell-based; settings: Homo sapiens, inhibition of cancer cell proliferation
# all 50 cell lines = test: CellTiter-Glo Viability Assay, average across all cell lines; assay type: cell-based; settings: Homo sapiens; across all 50 cell lines; read-out: average EC50 for inhibition of cancer cell proliferation
# Outline: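 Proliferation of a multi-tissue human cancer line panel is assessed over four days at 37° C and 5% CO2, seeding 300-3,000 cells/well. Viability is quantified by CellTiter-Glo luminescence, and EC50 values are calculated.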
smiles,measurement,setting,value
[2H]c1c([2H])c([2H])c(/C=C/C(=O)Nc2cc3cc(-c4cncn4C)ccc3cn2)c([2H])c1[2H] [Compound 81],EC50,MCF7,0.505 µM
same,EC50,T47D,0.471 µM
same,EC50,CAMA1,0.429 µM
same,EC50,MDA-MB-231-Luc,0.338 µM
same,EC50,HCC1599,0.165 µM
same,EC50,BT-549,0.273 µM
same,EC50,DU4475,0.152 µM
same,EC50,ZR-75-1,0.441 µM
same,EC50,"[1]; PA-1, PA1 cell line, read-out: Ovarian cancer, EC50 (μM) PA1",0.218 µM
same,EC50,"[1]; TOV112D, TOV-112D cell line, read-out: Ovarian cancer, EC50 (μM) TOV-112D",0.228 µM
same,EC50,"[1]; OV-90 cell line, read-out: Ovarian cancer, EC50 (μM) OV-90",0.838 µM
same,EC50,"[1]; OVCAR-3 cell line, read-out: Ovarian cancer, EC50 (μM) OVCAR-3",0.315 µM
same,EC50,"[2]; BXPC-3, BxPC3 cell line, read-out: Pancreatic cancer, EC50 BxPC3",0.848 µM
same,EC50,"[2]; CAPAN-1, Capan1 cell line, read-out: Pancreatic cancer, EC50 Capan1",0.372 µM
same,EC50,"[2]; Capan-2, Capan2 cell line, read-out: Pancreatic cancer, EC50 Capan2",0.62 µM
same,EC50,"[2]; MIA PaCa-2 cell line, read-out: Pancreatic cancer, EC50 MIA PaCa-2",0.261 µM
same,EC50,"[2]; PANC 05.04 cell line, read-out: Pancreatic cancer, EC50 PANC 05.04",0.564 µM
same,EC50,"[2]; PANC-1 cell line, read-out: Pancreatic cancer, EC50 PANC-1",0.6 µM
same,EC50,"[2]; UPAFII cell line, read-out: Pancreatic cancer, EC50 UPAFII",0.348 µM
same,EC50,"[3]; SNU-398, SNU398 cell line, read-out: Liver cancer, EC50 SNU398",0.112 µM
same,EC50,"[3]; HEPG2 cell line, read-out: Liver cancer, EC50 HEPG2",0.47 µM
same,EC50,"[3]; PLC/PRF/5 cell line, read-out: Liver cancer, EC50 PLC/PRF/5",0.466 µM
same,EC50,"[4]; HCT-116, HCT116 cell line, read-out: Colorectal cancer, EC50 (μM) HCT116",0.147 µM
same,EC50,"[4]; HT-29, HT29 cell line, read-out: Colorectal cancer, EC50 (μM) HT29",0.433 µM
same,EC50,"[4]; SW-620, SW620 cell line, read-out: Colorectal cancer, EC50 (μM) SW620",0.135 µM
same,EC50,"[4]; DLD-1 cell line, read-out: Colorectal cancer, EC50 (μM) DLD-1",0.199 µM
same,EC50,"[4]; SW48 cell line, read-out: Colorectal cancer, EC50 (μM) SW48",0.12 µM
same,EC50,"[4]; SW480 cell line, read-out: Colorectal cancer, EC50 (μM) SW480",0.132 µM
same,EC50,CLK2,0.0034 µM
same,EC50,CLK3,0.0154 µM
same,EC50,"[5]; DND41, DND-41 cell line, read-out: Haematopoietic & Lymphoid tumors, EC50 (μM) DND-41",0.213 µM
same,EC50,"[5]; MV4-11, MV-4-11 cell line, read-out: Haematopoietic & Lymphoid tumors, EC50 (μM) MV-4-11",0.025 µM
same,EC50,"[5]; Rec1, REC-1 cell line, read-out: Haematopoietic & Lymphoid tumors, EC50 (μM) REC-1",0.106 µM
same,EC50,"[5]; SU-DHL-4, SUDHL4 cell line, read-out: Haematopoietic & Lymphoid tumors, EC50 (μM) SUDHL4",0.407 µM
same,EC50,"[5]; HL-60 cell line, read-out: Haematopoietic & Lymphoid tumors, EC50 (μM) HL-60",0.235 µM
same,EC50,"[5]; JM1 cell line, read-out: Haematopoietic & Lymphoid tumors, EC50 (μM) JM1",0.12 µM
same,EC50,"[5]; JURKAT, Clone E6-1 cell line, read-out: Haematopoietic & Lymphoid tumors, EC50 (μM) JURKAT, Clone E6-1",0.305 µM
same,EC50,"[5]; JeKo-1 cell line, read-out: Haematopoietic & Lymphoid tumors, EC50 (μM) JeKo-1",0.136 µM
same,EC50,"[5]; KASUMI-1 cell line, read-out: Haematopoietic & Lymphoid tumors, EC50 (μM) KASUMI-1",0.206 µM
same,EC50,"[5]; Loucy cell line, read-out: Haematopoietic & Lymphoid tumors, EC50 (μM) Loucy",0.374 µM
same,EC50,"[5]; MOLT-4 cell line, read-out: Haematopoietic & Lymphoid tumors, EC50 (μM) MOLT-4",0.186 µM
same,EC50,"[5]; TF-1 cell line, read-out: Haematopoietic & Lymphoid tumors, EC50 (μM) TF-1",0.391 µM
same,EC50,"[5]; TOLEDO cell line, read-out: Haematopoietic & Lymphoid tumors, EC50 (μM) TOLEDO",0.13 µM
same,EC50,"[6]; DU-145, read-out: Prostate cancer EC50 Du-145",0.429 µM
same,EC50,"[6]; PC-3, PC3 cell line, inhibition of cancer cell proliferation, read-out: Prostate cancer EC50 PC3",0.287 µM
same,EC50,"[6]; 22Rv1 cell line, inhibition of cancer cell proliferation, read-out: Prostate cancer EC50 22Rv1",0.329 µM
same,EC50,"[6]; LNCap clone FGC cell line, inhibition of cancer cell proliferation, read-out: Prostate cancer EC50 LNCap clone FGC",0.444 µM
same,EC50,"[6]; VCaP (Sigma) cell line, inhibition of cancer cell proliferation, read-out: Prostate cancer EC50 VCaP (Sigma)",0.497 µM
same,EC50,"[7]; A-427, A427 cell line, read-out: Lung cancer, EC50 (μM) A427",0.216 µM
same,EC50,"[7]; HCC78, HCC-78 cell line, read-out: Lung cancer, EC50 (μM) HCC-78",0.396 µM
same,EC50,"[7]; NCI-H460 cell line, read-out: Lung cancer, EC50 (μM) NCI-H460",0.329 µM
same,EC50,"[7]; NCI-H522 cell line, read-out: Lung cancer, EC50 (μM) NCI-H522",0.216 µM
same,EC50,all 50 cell lines,0.324 µM
